# Laboratory results from patent US20230392180A1, “MICROSCOPIC IMAGING AND ANALYSES OF EPIGENETIC LANDSCAPE” (Sanford Burnham Prebys Medical Discovery Institute, priority 2020, published 2023).
# Entries after “also recorded” stand apart in the source; their conditions may differ.
# Key:
# [1] = tested on: primary mouse hepatocytes; experiment: MIEL-Rejuvenation in primary old hepatocytes; type: cell-based, mice; details: for outcome in high throughput screening using primary mouse hepatocytes (miBioAge): figure legends FIG. 63-65; for shift of epigenetic signature of old cells towards that of young cells: old hepatocytes
# From the text: To meet this challenge, techniques described herein were employed to analyze the effects of various drugs on the analysis of epigenome topography at the single cell level. Because of large numbers of cells required for drug screening, mice were used as a source of (C57BLACK/6) of liver hepatocytes (˜98% pure in the preparations) for probing whether epigenetic signature of aging is retained after short-term cultures of hepatocytes. […] The ability of hepatocytes to maintain age-related epigenetic or multiparametric signatures in cell culture conditions provides the foundation for high throughput screening.
# These high content screenings using MIEL pipeline were conducted to adapt these assay conditions. Briefly, on day 0, 10,000 primary mouse hepatocytes per well were seeded in 384 well plates. Hepatocytes were isolated via a 2-step perfusion method yielding ˜98% pure population of primary hepatocytes. At 24 hrs after seeding, compounds were added in DMSO. Primary mouse hepatocytes were determined to tolerate DMSO concentrations of at least 0.1% (v/v) without adverse effects on cell growth or viability over 5 days (compared to no DMSO control). Using the Echo acoustic compound dispensing system and 10 mM stock concentration library plates, each of the drugs at concentrations up to 10 μM was sufficiently delivered. At 4 days after seeding, cells were fixed and immunolabeled with antibody to H3K9me3, H3K27me3, and H4K20me3 (initially in separate wells) to determine the efficiency of each individual mark and potential for synergy.
# GBM2 cells [2] = experiment: RNAseq and transcriptomic analysis; type: cell-based, human; details: for gene expression changes (GO terms) compared with those induced by serum or BMP4 / ranking by average Euclidean distance from serum- or Bmp4-treated cells (MIEL- and gene expression-based): GBM2, 3 days; for ranking by average Euclidean distance from serum- or Bmp4-treated cells (MIEL- and gene expression-based): 8 candidate compounds; for Euclidean distance (FPKM, all expressed genes) of treated cells to serum or Bmp4 treated cells: GBM2 TPCs
# Description: RNAseq and transcriptomic analysis: Total RNA was isolated from GBM2 cells using the RNeasy Kit (Qiagen), 0.5 ug total RNA was used for isolation of mRNAs and library preparation. Library preparation and sequencing was conducted by the SBP genomics core (Sanford-Burnham NCI Cancer Center Support Grant P30 CA030199). PolyA RNA was isolated using the NEBNext® Poly(A) mRNA Magnetic Isolation Module and barcoded libraries were made using the NEBNext® Ultra II™ Directional RNA Library Prep Kit for Illumina® (NEB, Ipswich MA). Libraries were pooled and single end sequenced (1X75) on the Illumina NextSeq 500 using the High output V2 kit (Illumina). Read data was processed in BaseSpace. Reads were aligned to Homo sapiens genome (hg19) using STAR aligner with default settings. Differential transcript expression was determined using the Cufflinks Cuffdiff package. Go term enrichment analysis was conducted using PANTHER v11 using all genes identified as differentially expressed following either serum or Bmp4 treatment. For heat maps showing fold change in expression the FPKM values in each population were divided by the average FPKM values of untreated GBM2. To highlight differences in expression levels between serum and Bmp4 treated GBM2 cells the FPKM values in each sample were z-scored. Zscore=(FPKMObservation−FPKMAverage)/FPKMSD (FPKMObservation−FPKM value obtain through sequencing; FPKMAverage−average of all FPKM values in all samples for a certain gene; FPKMSD−standard deviation of FPKM values for a certain gene). Heat maps were generated using Microsoft Excel conditional formatting function.
# Correlation of transcriptomic and image-based profiles: Euclidean distance between untreated, serum or Bmp4 treated GBM2 cells (triplicates for each) was calculated using either transcriptomic data (FPKM) or texture features. Pearson's correlation coefficient (R) was transformed to a t-value using the formula (t=R×SQRT(N−2)/SQRT(1−R2) where N is the number of samples, and R is Pearson correlation coefficient, and the p-value was calculated using Excel tdist(t) function. For compound prioritization, the Euclidean distance between compound treated and serum or Bmp4 treated GBM2 cells was calculated based on either transcriptomic data (FPKM) or image features. The average distance to both serum and Bmp4 treatments was normalized to the average distance of untreated cells to serum and Bmp4.
# RNAseq and transcriptomic analysis: Total RNA was isolated from GBM2 cells using the RNeasy Kit (Qiagen), 0.25 μg total RNA was used to isolate mRNAs and for library preparation. Library preparation and sequencing were conducted by the SBP genomics core (Sanford-Burnham NCI Cancer Center Support Grant P30 CA030199). PolyA RNA was isolated using the NEBNext® Poly(A) mRNA Magnetic Isolation Module, and barcoded libraries were made using the NEBNext® Ultra II™ Directional RNA Library Prep Kit for Illumina® (NEB, Ipswich MA). Libraries were pooled and single-end sequenced (1×75) on the Illumina NextSeq 500 using the High-Output V2 kit (Illumina). Read data, processed in BaseSpace, were aligned to Homo sapiens genome (hg19) using STAR aligner with default settings. Differential transcript expression was determined using the Cufflinks Cuffdiff package. For heat maps showing fold change in expression, FPKM values in each HDACi-treated population were divided by the average FPKM values of DMSO-treated GBM2 and values shown as log 2 of the ratio. Go enrichment analysis was conducted using PANTHER v11 using all genes identified as differentially expressed following either serum or Bmp4 treatment. To highlight differences in expression levels between serum- and Bmp4-treated GBM2 cells, FPKM values in each sample were z-scored. Zscore=(FPKMObservation−FPKMAverage)/FPKMSD (FPKMObservation−FPKM value obtain through sequencing; FPKMAverage−average of all FPKM values in all samples for a certain gene; FPKMSD−standard deviation of FPKM values for a certain gene). […]
# GBM2 cells [3] = experiment: Immunofluorescence of core TPC transcription factors and Ki67 in drug-treated cells; type: cell-based, human; details: for Sox2 expression: GBM2, 3 days treatment, Digitoxigenin 0.3 μM; for expression of the core transcription factors: GBM2, compared with serum and Bmp4; for Sall2 and Brn2 expression: GBM2, immunofluorescence
# Description: Cell staining: Cells were rinsed with PBS and fixed in 4% paraformaldehyde in PBS for 10 min at room temperature. After blocking with PBSAT (2% BSA and 0.5% Triton X-100 in PBS) for 1 h at room temperature, the cells were incubated overnight at 4° C. with primary antibodies diluted in PBSAT. The primary antibodies are listed in Table 2, and the appropriate fluorochrome-conjugated secondary antibodies were used at 1:500 dilution. Nuclear co-staining was performed by incubating cells with Hoechst-33342 nuclear dye.
# Microscopy and image analysis: Unless stated otherwise, for MIEL analysis cells were imaged on an Opera QEHS high-content screening system (PerkinElmer) using ×40 water immersion objectives. Images collected on the Opera were analyzed using Acapella 2.6 (PerkinElmer). At least 40 fields per well were acquired and at least 2 wells per population were used. Features of nuclear morphology, fluorescence intensity inter-channel co-localization, and texture features (Image moments, Haralick, Threshold Adjacency Statistics) were calculated using custom algorithms (scripts available from www.andrewslab.ca). A full list of the features used is available from the authors. Values for each cell were generated and exported to MATLAB for further analysis. For Sall2, Olig2, Brn2, Sox2, Oct4 and GFAP immunostaining, images were captured on an IC200-KIC (Vala Sciences) using a ×20 objective. Between 3 and 8 fields per well were acquired and analyzed using Acapella 2.6 (PerkinElmer). For all nuclear markers, average intensities in nucleus or fold change in average intensity compared to untreated cells are shown. Unless stated otherwise, at least 3 wells and a minimum of 300 cells for each condition were compared using unpaired two-tailed t-test was.
# Microscopy and image analysis: For MIEL analysis, cells were imaged on either an Opera QEHS high-content screening system (PerkinElmer) using ×40 water immersion objectives or an IC200-KIC (Vala Sciences) using a ×20 objective. Images collected were analyzed using Acapella 2.6 (PerkinElmer). At least 40 fields/well for Opera and 5 fields/well for IC200 were acquired and at least 2 wells per population were used. Features of nuclear morphology, fluorescence intensity inter-channel co-localization, and texture features (Image moments, Haralick, Threshold Adjacency Statistics) were calculated using custom algorithms. A full list of the features used is available from the authors. Values for each cell were generated and exported to Microsoft Excel or MATLAB for further analysis. For Sall2, Olig2, Brn2, Sox2, Oct4, and GFAP immunostaining, images were captured on an IC200-KIC (Vala Sciences) using a ×20 objective. Between 3 and 8 fields per well were acquired and analyzed using Acapella 2.6 (PerkinElmer). For all nuclear markers, average intensities in nucleus or fold change compared to untreated cells are shown. Unless stated otherwise, at least 3 wells and a minimum of 300 cells for each condition were compared using the unpaired two-tailed t-test.
# TPCs = experiment: Growth rate of treated glioblastoma cells; details: GBM2, 3 days, compared with serum/Bmp4 treatment
smiles,measurement,setting,value
CC(Cc1ccc(O)c(O)c1)C(C)Cc1ccc(O)c(O)c1 (centres unmarked) [NDGA],outcome in high throughput screening using primary mouse hepatocytes (miBioAge),[1],positive controls
same,shift of epigenetic signature of old cells towards that of young cells,[1],Statistically significant dose-dependent shifts
C[C@H]1O[C@@H](O[C@H]2[C@@H](O)C[C@H](O[C@H]3[C@@H](O)C[C@H](O[C@H]4CC[C@@]5(C)[C@H](CC[C@@H]6[C@@H]5C[C@@H](O)[C@]5(C)[C@@H](C7=CC(=O)OC7)CC[C@]65O)C4)O[C@@H]3C)O[C@@H]2C)C[C@H](O)[C@@H]1O [Digoxin],gene expression changes (GO terms) compared with those induced by serum or BMP4,GBM2 cells [2],markedly different
same,ranking by average Euclidean distance from serum- or Bmp4-treated cells (MIEL- and gene expression-based),GBM2 cells [2],lowest-ranking candidate
same,gene expression changes (GO terms) compared with those induced by serum or BMP4,GBM2 cells [2]; listed as digoxin,rather different
same,"Euclidean distance (FPKM, all expressed genes) of treated cells to serum or Bmp4 treated cells",GBM2 cells [2],Neither Digitoxigenin nor Digoxin reduced the distance
same,Sox2 expression,GBM2 cells [3],reduced
same,expression of the core transcription factors,GBM2 cells [3],downregulate
same,Sall2 and Brn2 expression,GBM2 cells [3],significant reduction
same,growth rate of drug-treated cells,TPCs,stronger reduction; also recorded: cytostatic
same,growth rate of drug-treated cells,TPCs; listed as digoxin,cytostatic
CN(C)C(=N)N=C(N)N [Metformin],outcome in high throughput screening using primary mouse hepatocytes (miBioAge),[1],positive controls
COc1cc([C@@H]2c3cc4c(cc3[C@@H](O[C@@H]3O[C@@H]5CO[C@@H](C)O[C@H]5[C@H](O)[C@H]3O)[C@H]3COC(=O)[C@H]23)OCO4)cc(OC)c1O [etoposide],ranking by average Euclidean distance from serum- or Bmp4-treated cells (MIEL- and gene expression-based),GBM2 cells [2],top candidate
C[C@]12CC[C@@H]3c4ccc(O)cc4CC[C@H]3[C@@H]1CC[C@@H]2O [17 beta-estradiol],outcome in high throughput screening using primary mouse hepatocytes (miBioAge),[1],positive controls
O=C(O)C(Cc1c[nH]c2ccccc12)N1C(=O)c2ccccc2C1=O (centres unmarked) [RG108],outcome in high throughput screening using primary mouse hepatocytes (miBioAge),[1],inactive molecules
Cn1c(=O)n(-c2ccc(C(C)(C)C#N)cc2)c2c3cc(-c4cnc5ccccc5c4)ccc3ncc21 [NVP-BEZ235],outcome in high throughput screening using primary mouse hepatocytes (miBioAge),[1],hits to be tested in animal models
"NC(=O)c1ccc[n+]([C@@H]2O[C@H](COP(=O)([O-])O)[C@@H](O)[C@H]2O)c1 [Nicotiamide mononucleotide, Nicotinamide mononucleotide]",outcome in high throughput screening using primary mouse hepatocytes (miBioAge),[1],inactive molecules
CC(C)n1nc(-c2ccc3oc(N)nc3c2)c2c(N)ncnc21 [INK128],outcome in high throughput screening using primary mouse hepatocytes (miBioAge),[1],hits to be tested in animal models
NC(=O)c1ccc[n+]([C@@H]2O[C@H](CO)[C@@H](O)[C@H]2O)c1 [nicotinamide riboside],outcome in high throughput screening using primary mouse hepatocytes (miBioAge),[1],inactive molecules
COc1ncc(-c2ccc3nccc(-c4ccnnc4)c3c2)cc1NS(=O)(=O)c1ccc(F)cc1F [GSK2126458],outcome in high throughput screening using primary mouse hepatocytes (miBioAge),[1],hits to be tested in animal models
CC(=O)Oc1ccccc1C(=O)O [aspirin],shift of epigenetic signature of old cells towards that of young cells,[1],Statistically significant dose-dependent shifts
C[C@]12CC[C@H](O)C[C@H]1CC[C@@H]1[C@@H]2CC[C@]2(C)[C@@H](C3=CC(=O)OC3)CC[C@]12O [Digitoxigenin],gene expression changes (GO terms) compared with those induced by serum or BMP4,GBM2 cells [2],markedly different
same,"Euclidean distance (FPKM, all expressed genes) of treated cells to serum or Bmp4 treated cells",GBM2 cells [2],Neither Digitoxigenin nor Digoxin reduced the distance
same,Sox2 expression,GBM2 cells [3],reduce
same,expression of the core transcription factors,GBM2 cells [3],downregulate
same,Sall2 and Brn2 expression,GBM2 cells [3],significant reduction
